Reference: paper PMC6261997, “Synergistic enzymatic and bioorthogonal reactions for selective prodrug activation in living systems” (Nature Communications, 2018)
Where two headings read alike, the source gives them in different places.

Columns and labels:
[1] = test system: HeLa cells; test: MTT cell viability / cytotoxicity assay, HeLa cells; type: cell-based; details: for EC50: Homo sapiens, HeLa; for EC50 ratio CCC-HEH-2/HeLa / EC50 ratio HUVECs/HeLa: ratio of 72 h EC50 values
Description: (§1) Cells were plated in flat-bottom 96-well plates at a density of 3 × 10^3 cells per well. After 12 h of cell attachment, the cell culture medium was replaced with 100 μL of pre-warmed media containing the compounds at different concentrations. After 24–72 h of incubation, cell proliferation was assessed by the MTT assay. A fresh mixture of 10 μL of thiazolyl blue tetrazolium bromide (MTT) and 90 μL of medium were freshly added to each well. After incubation for 4 h, the medium was gently removed. The formazan crystals that formed were dissolved in 110 μL of DMSO, and the absorbance was subsequently measured with a plate reader (Perkin Elmer) at 490 nm. EC50 values were calculated using Origin software. To measure the cytotoxicity of 2, HeLa cells, HUVECs, Saos-2 cells and CCC-HEH-2 cells were incubated with 100 μL of 1–500 μM 2 for 24 h, and then, cell viability was determined. To measure the cytotoxicity of TCO-Dox or Dox, HeLa cells, HUVECs, Saos-2 cells or CCC-HEH-2 cells were incubated with 200 μL of 0.001–10 μM TCO-Dox or Dox for 72 h, and the cell viability was determined. To determine the cytotoxicity of activated Dox, HeLa cells, HUVECs, […], and then, 2 was removed and 200 μL of 0.0001–10 μM TCO-Dox was added for 72 h of incubation, and cell viability was determined. […]
(§2) Prodrug activation efficacy in cells: Cells were plated on flat bottom 96-well plates at a
(§3) density of 3x10^3 cells per well. After 12 h attachment, cells were incubated with 100 µL
(§4) 500 µM of 2 for 6 h before removing 2 and the addition of 200 µL 0.0001-10 µM of […]

[2] = test system: Saos-2 cells; test: MTT cell viability / cytotoxicity assay, Saos-2 cells; type: cell-based; details: for EC50: Homo sapiens; for EC50 ratio CCC-HEH-2/Saos-2 / EC50 ratio HUVECs/Saos-2: ratio of 72 h EC50 values
Description: (§5) Cells were plated in flat-bottom 96-well plates at a density of 3 × 10^3 cells per well. After 12 h of cell attachment, the cell culture medium was replaced with 100 μL of pre-warmed media containing the compounds at different concentrations. After 24–72 h of incubation, cell proliferation was assessed by the MTT assay. A fresh mixture of 10 μL of thiazolyl blue tetrazolium bromide (MTT) and 90 μL of medium were freshly added to each well. After incubation for 4 h, the medium was gently removed. The formazan crystals that formed were dissolved in 110 μL of DMSO, and the absorbance was subsequently measured with a plate reader (Perkin Elmer) at 490 nm. EC50 values were calculated using Origin software. To measure the cytotoxicity of 2, HeLa cells, HUVECs, Saos-2 cells and CCC-HEH-2 cells were incubated with 100 μL of 1–500 μM 2 for 24 h, and then, cell viability was determined. To measure the cytotoxicity of TCO-Dox or Dox, HeLa cells, HUVECs, Saos-2 cells or CCC-HEH-2 cells were incubated with 200 μL of 0.001–10 μM TCO-Dox or Dox for 72 h, and the cell viability was determined. To determine the cytotoxicity of activated Dox, HeLa cells, HUVECs, Saos-2 cells or CCC-HEH-2 cells were pre-incubated with 100 μL of 500 μM 2 for 6 h, and then, 2 was removed and 200 μL of 0.0001–10 μM TCO-Dox was added for 72 h of incubation, and cell viability was determined. […]
Prodrug activation efficacy in cells: Cells were plated on flat bottom 96-well plates at a density of 3x10^3 cells per well. After 12 h attachment, cells were incubated with 100 µL 500 µM of 2 for 6 h before removing 2 and the addition of 200 µL 0.0001-10 µM of TCO-Dox. Cells were further incubated for 72 h before measuring the viability by the MTT […]
Clonogenic assay of cells in vitro: Clonogenic assay was performed according to the standard protocol.6 2×10^5 attached cells were treated with 500 µM of 2 for 6 h in culture dishes. Cells were then detached, re-suspended in cultural medium and counted accurately. The cell suspension was diluted into the desired seeding concentration and cells were seeded in 6-well plates at a density of 200 cells per well for CCC-HEH-2 and 400 cells per well for HeLa, Saos-2 and HUVECs. After incubation for 10 days, the cultural medium was removed and cells were rinsed carefully with PBS. 2 mL of a mixture of 6.0% (vol/vol) glutaraldehyde and 0.5% (wt/vol) crystal violet was added and kept for 30 min.
The glutaraldehyde crystal violet mixture was removed carefully. The colonies were rinsed with water and dried in normal air at room temperature. The number of the colonies was counted using a stereomicroscope.
When untreated cells are plated as a single-cell suspension at low densities, they will grow to colonies. The plating efficiency (PE) is the ratio of the number of colonies to the […]
(Supplementary Equation 1)
The number of colonies that arise after treatment of cells, expressed in terms of PE, is called the surviving fraction (SF): […]

[3] = test system: CCC-HEH-2 cells; test: MTT cell viability / cytotoxicity assay, CCC-HEH-2 cells; type: cell-based; details: Homo sapiens, read-out: EC50, CCC-HEH-2
Description: as §5

[4] = test system: HUVECs; test: MTT cell viability / cytotoxicity assay, HUVECs; type: cell-based; details: for EC50: Homo sapiens, HUVEC
Description: as §1, §2, §3, §4

[5] = test system: HeLa tumours; test: Tumour inhibition test, subcutaneous HeLa xenograft; type: in vivo, BALB/c nude mice; details: for tumour growth: i.v., three courses (day 0, 3, 6), 50 mg kg^−1 2, 30 mg kg^−1 TCO-Dox, 5 mg kg^−1 Dox, or 50 mg kg^−1 2 then 30 mg kg^−1 TCO-Dox after 2 h
Description: All animal studies were performed in accordance with the Institutional Animal Use and Care Regulations approved by the National Institutes of Health Clinical Center/Animal Care and Use Committee (NIH CC/ACUC). Athymic female nude mice (5–6 weeks old) were purchased from Beijing Huafukang Bioscience Co., Ltd., and raised in a specific-pathogen-free barrier facility. Tumour-bearing mice were established by subcutaneously injecting a suspension of 10^6 HeLa cells per mouse into the front flank of each nude mouse.
After 14 days, the mice were sacrificed.

[6] = Systemic toxicity in treated mice (body weight, death, organ histology)
Description: When the tumour volume reached approximately 80–100 mm^3, the mice were divided into five groups (n = 8) and used for therapeutic studies. Mice in the treatment group received an i.v. injection of 50 mg kg^−1 2 and a subsequent 30 mg kg^−1 TCO-Dox after a 2-h interval. In the control groups, mice were received 50 mg kg^−1 2, 30 mg kg^−1 TCO-Dox, 5 mg kg^−1 Dox or saline. The mice received three treatment courses on day 0, day 3 and day 6. Tumour size and body weight were measured every 2 days. After 14 days, the mice were sacrificed. Tumours and main organs were obtained for histological examination with HE staining.
Effect of the dosage of Dox to the mice body weight.
The arrows on x-axis marked the administrations of Dox (n= 8).
indicate standard deviation.
Histological examination of heart, liver, spleen, lung and
Organs were harvested after treatment at day 14 and stained by hematoxylin and

[7] = In vitro decaging of TCO-Dox by 2 (UPLC-MS); details: TCO-Dox mixed with 2 in 25% acetonitrile in H2O, 37 °C
Description: The Tz counterpart prodrug TCO-Dox was prepared according to previously published procedures using the axial tautomer of TCO[27]. After the selection of optimized Tz and TCO, the decaging reactions in our study were further characterized (Fig. 2d). After mixing 2 μL of 10 mM TCO-Dox with 2.5 μL of 20 mM 2 in 25% acetonitrile in H2O at 37 °C, the reaction mixture was analysed by ultra-performance liquid chromatography-mass spectrometry (UPLC-MS) at different time points. […] Similarly, we prepared TCO-caged coumarin (TCO-CMR, see Supplementary Methods for a detailed synthesis protocol)[23]. According to a previously developed fluorescence liberation, the fluorescence of coumarin was restored rapidly in the presence of Tz derivatives (Supplementary Fig. 6).

[8] = UPLC-MS/MS pharmacokinetic analyses in tumour, liver and plasma; type: in vivo, BALB/c nude mice; details: i.v. 30 mg kg-1 TCO-Dox
Description: For in vivo prodrug activation, mice received an i.v. injection of 50 mg kg^−1 2 and a subsequent 30 mg kg^−1 TCO-Dox after a 2-h interval. After different time intervals, blood samples were collected from the tail veins, and then, the tumours and livers were harvested for UPLC-MS/MS analysis.
UPLC-MS/MS analyses: UPLC-MS/MS metabolomic analyses were performed using a
multiple reaction-monitoring mode (MRM). Data acquisition and processing were performed using LabSolutions version 5 software. Measurements were carried out at
Dox, solvent A consisted of 0.1% formic acid in water and solvent B consisted of 0.1% formic acid in mass spectrometric grade acetonitrile; (2) for compound TCO-Dox, solvent A consisted of 100% water and solvent B consisted of 100% mass spectrometric grade acetonitrile. Injection volume was 2 or 10 L. The mass spectrometer was interfaced with the liquid chromatograph using an electrospray ion source. The nitrogen nebulizing gas flow was set at 10 L min-1 and the drying gas flow at 15 mL min-1. 4500 V were used for the interface voltage. The temperature of the block heater was maintained at 400 °C and the one of the desolvation line at 250 °C. The MRM transitions were
Dox. The collision gas used was argon at 230 kPa. The dwell time was set to 100 msec and the pause time to 3 msec.
Sample preparation: blood samples were collected from the tail vein of mice. Plasma […]

COc1cccc2c1C(=O)c1c(O)c3c(c(O)c1C2=O)C[C@@](O)(C(=O)CO)C[C@@H]3O[C@H]1C[C@H](N)[C@H](O)[C@H](C)O1 [Dox, doxorubicin, reference compound]
EC50 ([1]; 72 h cytotoxicity, MTT, Activated Dox: cells pre-incubated with 500 μM 2 for 6 h, then TCO-Dox 72 h, read-out: EC50, HeLa): 732 nM | EC50 ratio CCC-HEH-2/HeLa [1]: 0.115 | EC50 ratio HUVECs/HeLa [1]: 0.182 | EC50 ([2]; SAOS-2, 72 h cytotoxicity, MTT, Activated Dox: cells pre-incubated with 500 μM 2 for 6 h, then TCO-Dox 72 h, read-out: EC50, Saos-2): 425 nM | EC50 ratio CCC-HEH-2/Saos-2 [2]: 0.198 | EC50 ratio HUVECs/Saos-2 [2]: 0.313 | EC50 ([3]; 72 h cytotoxicity, MTT, Activated Dox: cells pre-incubated with 500 μM 2 for 6 h, then TCO-Dox 72 h): 84 nM | EC50 ([4]; 72 h cytotoxicity, MTT, Activated Dox: cells pre-incubated with 500 μM 2 for 6 h, then TCO-Dox 72 h, read-out: EC50, HUVECs): 133 nM | tumour growth [5]: tumour growth could be inhibited | death of mice ([6]; 6.0 mg kg-1 Dox): the mice began to die eleven day | death of mice ([6]; 7.5 mg kg-1 Dox): the mice began to die six | death of mice ([6]; 15 mg kg-1 Dox): the mice died within five days

COc1cccc2c1C(=O)c1c(O)c3c(c(O)c1C2=O)CC(O)(C(=O)CO)CC3OC1CC(NC(=O)OC2C=CCCCCC2)C(O)C(C)O1 (stereo not shown) [TCO-Dox]
EC50 higher than that of Dox, HeLa cells ([1]; 72 h): ~10 fold | EC50 ([1]; read-out: EC50, HeLa, 72 h cytotoxicity, MTT, Activated Dox: cells pre-incubated with 500 μM 2 for 6 h, then TCO-Dox 72 h): 6790 nM | EC50 ([1]; read-out: EC50 against HeLa cells, cells pre-incubated with 300 μM 2 for 6 h, then TCO-Dox 72 h): 1200 nM | EC50 ([1]; read-out: EC50 against HeLa cells, cells pre-incubated with 500 μM 2 for 6 h, then TCO-Dox 72 h): 29.8 nM | EC50 against HeLa cells with 300 μM 2 higher than with 500 μM 2 ([1]; pre-incubation 6 h, then TCO-Dox 72 h): approximately 40 fold | EC50 ratio CCC-HEH-2/HeLa [1]: 0.908 | EC50 ratio HUVECs/HeLa [1]: 0.855 | EC50 ([2]; SAOS-2, read-out: EC50, Saos-2): 7570 nM | EC50 ratio CCC-HEH-2/Saos-2 [2]: 0.815 | EC50 ratio HUVECs/Saos-2 [2]: 0.767 | EC50 [3]: 6170 nM | EC50 higher than that of Dox, HUVECs ([4]; 72 h): more than 40 fold | EC50 ([4]; read-out: EC50, HUVECs, 72 h cytotoxicity, MTT, Activated Dox: cells pre-incubated with 500 μM 2 for 6 h, then TCO-Dox 72 h): 5810 nM | EC50 ([4]; read-out: EC50 against HUVECs, cells pre-incubated with 300 μM 2 for 6 h, then TCO-Dox 72 h): 367 nM | EC50 ([4]; read-out: EC50 against HUVECs, cells pre-incubated with 500 μM 2 for 6 h, then TCO-Dox 72 h): 272 nM | time to complete liberation of Dox [7]: ≤ 2 min | concentration of TCO-Dox in plasma [8]: relatively high concentration of TCO-Dox remaining in the blood | histological examination of dissected tumours (HE staining) ([5]; after treatment for 14 days): the HeLa cells remained normal | tumour growth [5]: rapid growth similar to that observed in the saline control group
